This note sets out measurements from PMC10447463, “Data-mining unveils structure–property–activity correlation of viral infectivity enhancing self-assembling peptides” (Nature Communications, 2023).

Series [1] is classed as physicochemical. Particulars: for Tht category (> 1.5 to blank = +): category 1/0. Put shortly: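 Fibrils (1 mg/mL solution) were mixed with 50 µM ThT in PBS for 15 min at RT, and fluorescence was read at λex 440/λem 488 nm against a PBS blank, as a triplicate mean ± SD. Zeta potential came from electrophoretic mobility (Smoluchowski) after 1 d aggregation at 1 mg/mL in PBS pH 7.4, diluted into 1 mM KCl.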

Series [2] in a line: Turbidity, derived count rate of scattered light. Format: physicochemical. The method in brief:
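One-day room-temperature aggregation at 1 mg/mL in PBS (pH 7.4) preceded measurement; samples then went into 1 mM KCl. Triplicates per sample, two independent experiments averaged.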

Setting [3] is: relative to blank 42.1851851851852 a.u.
Where [4] appears, read: derived count rate of scattered light, mean, std deviation in next column.
Where [5] appears, read: ThT fluorescence relative to blank (42.1851851851852 a.u.).
The mark [6] stands for this setting: category 1 or 0 from count rate, key not given.
Setting [7] is: derived count rate of scattered light, mean, std deviation in separate column.
Where [8] appears, read: ThT fluorescence relative to blank, blank = 42.1851851851852.
Setting [9] is: category 1 or 0 derived from the count rate, key not given.
[10] abbreviates: derived count rate of scattered light.

Where two headings read alike, the source gives them in different places.

Turning to MKFKFQF [DF5 / CK16], the “Tht category (> 1.5 to blank = +)” value in series [1] is 0 (ThT-inactive (N-Fold <2)). The “Tht rel to blank (42.1851851851852)” value in series [1] (setting [3]) is given as 0.9846. Moreover, in series [2] (category 1/0, no key printed), the “Zeta Count Rate Category” value is on record as 1. The “Zeta Count Rate / kcps” value in series [2] (setting [4]) came out at 124 kcps.
For MKIKIQINM [TM41], in series [1], the “Tht category (> 1.5 to blank = +)” value was 0 (ThT-inactive (N-Fold <2)). Moreover, in series [1] (setting [3]), the “Tht rel to blank (42.1851851851852)” value was 1.327. Further, in series [2] (category 1/0, no key printed), the “Zeta Count Rate Category” value is 1. Besides, in series [2] (setting [4]), the “Zeta Count Rate / kcps” value was 981.3 kcps.
As to MKIKIQINMWQ [TM52], the “Tht rel to blank (42.1851851851852)” value in series [1] (setting [5]) and in series [1] (setting [3]) was 4.061 throughout. In series [1], the “Tht category (> 1.5 to blank = +)” value is listed as 1 (ThT. Cat is 1, if Rel. ThT >2). Also, the “Zeta Count Rate Category” value in series [2] (category 1/0, no key printed) is 1; in series [2] (setting [6]), 1. Besides, the “Zeta Count Rate / kcps” value in series [2] (setting [4]) and in series [2] (setting [7]) was 1475 kcps in each case.
On to QCKAKAQA [CK24], for which the “Tht rel to blank (42.1851851851852)” value in series [1] (setting [5]) and in series [1] (setting [3]) was 1.319 each time. Moreover, the “Tht category (> 1.5 to blank = +)” value in series [1] was 0 (ThT-inactive (N-Fold <2)). Further, the “Log Count Rate” value in series [2] (Fig S8 panels B, D, log of derived count rate) is on record as 3.12. Also, in series [2] (Fig S8 panels B, D, turbidity, derived count rate of scattered light), the “Count Rate” value came to 1319.1. The “Zeta Count Rate Category” value in series [2] (category 1/0, no key printed) was determined as 1; in series [2] (setting [6]) it was 1. Besides, the “Zeta Count Rate / kcps” value in series [2] (setting [4]) and in series [2] (setting [7]) was 1319.1 kcps each time.
As for QCKAKAQANMWQ [CK22], the “Tht rel to blank (42.1851851851852)” value in series [1] (setting [5]) and in series [1] (setting [3]) was 1.496 in each case. For the same substance, the “Tht category (> 1.5 to blank = +)” value in series [1] is 0 (ThT-inactive (N-Fold <2)). The “Zeta Count Rate Category” value worked out at 1 in series [2] (category 1/0, no key printed) and 1 in series [2] (setting [6]). The “Zeta Count Rate / kcps” value in series [2] (setting [4]) and in series [2] (setting [7]) was 427.5 kcps throughout.
In the case of QCKFKFQF [CK9], the “Tht rel to blank (42.1851851851852)” value in series [1] (setting [5]) and in series [1] (setting [3]) was 2.014 each time. Also, the “Tht category (> 1.5 to blank = +)” value in series [1] is listed as 1 (ThT. Cat is 1, if Rel. ThT >2). The “Zeta Count Rate Category” value in series [2] (category 1/0, no key printed) amounted to 1; in series [2] (setting [6]) it was 1. Also, the “Zeta Count Rate / kcps” value in series [2] (setting [4]) and in series [2] (setting [7]) was 2669 kcps in each case.
As to QCKFKFQFNM [CK8], the “Tht rel to blank (42.1851851851852)” value in series [1] (setting [5]) and in series [1] (setting [3]) was 2.317 each time. The “Tht category (> 1.5 to blank = +)” value in series [1] is 1 (ThT. Cat is 1, if Rel. ThT >2). The “Zeta Count Rate Category” value in series [2] (category 1/0, no key printed) is recorded as 1; in series [2] (setting [6]) it was 1. The “Zeta Count Rate / kcps” value in series [2] (setting [4]) and in series [2] (setting [7]) was 3669.6 kcps in each case.
As for QCKFKFQFNMWQ [CK7], the “Tht rel to blank (42.1851851851852)” value in series [1] (setting [5]) and in series [1] (setting [3]) was 1.854 throughout. Further, the “Tht category (> 1.5 to blank = +)” value in series [1] is 0 (ThT-inactive (N-Fold <2)). Also, the “Zeta Count Rate Category” value in series [2] (category 1/0, no key printed) is 1; in series [2] (setting [6]), 1. The “Zeta Count Rate / kcps” value in series [2] (setting [4]) and in series [2] (setting [7]) was 1208 kcps in each case.
Take QCKFKQFF [CK12]: the “Tht rel to blank (42.1851851851852)” value in series [1] (setting [5]), in series [1] (setting [8]) and in series [1] (setting [3]) was 2.349 in each case. In addition, in series [1], the “Tht category (> 1.5 to blank = +)” value is 1 (ThT. Cat is 1, if Rel. ThT >2). The “Zeta Count Rate Category” value in series [2] (category 1 / 0, no key given) was determined as 1; in series [2] (setting [9]), 1. Further, the “Zeta Count Rate / kcps” value in series [2] (setting [10]), in series [2] (setting [4]) and in series [2] (setting [7]) was 225.4 kcps each time.
On to QCKFKQFFNM [CK11], for which the “Tht rel to blank (42.1851851851852)” value in series [1] (setting [5]), in series [1] (setting [8]) and in series [1] (setting [3]) was 12.72 in each case. In addition, in series [1], the “Tht category (> 1.5 to blank = +)” value is 1 (ThT. Cat is 1, if Rel. ThT >2). In addition, the “Zeta Count Rate Category” value in series [2] (category 1 / 0, no key given) was found to be 1; in series [2] (setting [9]), 1. Besides, the “Zeta Count Rate / kcps” value in series [2] (setting [10]), in series [2] (setting [4]) and in series [2] (setting [7]) was 10384.7 kcps each time.
